Assay [1] concerns the target T1, PaMurU (Pseudomonas aeruginosa, UniProt Q9I5U0).
T1 construct: gene murU
The assay can be described thus: malachite green dual-enzyme assay IC50; target assigned by ESI-MS; SUPR-DSF shift +[…] °C. The format is biochemical.

Assay [2] addresses T1, PaMurU. The assay can be described thus: SUPR-DSF thermal shift (no Kd); nucleotide preference in enzyme assay. The format is binding.
Assay [3] has as its target T1, PaMurU. The experiment in a line: malachite green dual-enzyme assay IC50; target assigned by ESI-MS. The format is biochemical.

The text below walks through data of article PMC12346966, “Targeting the Cell Wall Salvage Pathway: Dual-Enzyme Inhibition of AmgK and MurU as a Strategy Against Antibiotic Resistance” (International Journal of Molecular Sciences, 2025).

T1 sequence (Q9I5U0 whole entry): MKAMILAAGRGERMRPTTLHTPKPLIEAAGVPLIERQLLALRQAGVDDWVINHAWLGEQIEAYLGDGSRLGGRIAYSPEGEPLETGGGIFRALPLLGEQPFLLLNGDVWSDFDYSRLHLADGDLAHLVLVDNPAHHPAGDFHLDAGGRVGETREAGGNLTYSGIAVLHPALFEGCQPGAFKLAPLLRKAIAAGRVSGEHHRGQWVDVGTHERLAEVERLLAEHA

As for `Nc1c(/N=N/c2ccc(-c3ccc(/N=N/c4cc(S(=O)(=O)O)c5ccccc5c4N)cc3)cc2)cc(S(=O)(=O)O)c2ccccc12` [compound 2, 4-amino-3-[[4-[4-[(1-amino-4-sulfonatonaphthalen-2-yl)diazenyl]phenyl]phenyl]diazenyl] naphthalene-1-sulfonate], the concentration for half-maximal inhibition (IC50) (as a rule, the point on the concentration scale where inhibition reaches its midpoint) in assay [1] came out at 14 µM. As to `O=c1ccn([C@@H]2O[C@H](COP(=O)(O)OP(=O)(O)OP(=O)(O)O)[C@@H](O)[C@H]2O)c(=O)[nH]1` [UTP], the thermal shift (ΔTm) – broadly, the shift of the melting midpoint relative to a reference – in assay [2] turned out to be 3.86 °C. `CCCCCCCCCCCCCCCC[N+](C)(C)C` [compound 1, CTAB] gave a half-inhibitory concentration (IC50) in assay [3] of 8.25 µM.
